From patent publication US12539284B2, “Aminoxy acid-based anti-cancer stem cell compounds and methods thereof” (Westlake University, priority 2019, dated 2026)
“Also recorded” adds a separate entry of the source. Like-named read-outs stand apart in the source and are kept apart here.

Experiments:
Huh 7 CD133- cells = assay: Cell viability (CellTiter-Glo) of sorted Huh 7 CD133- cells; format: cell-based; conditions: 48 h, different doses
Description: (§1) Huh-7 cells were stained with PE-conjugated CD133 antibody (HCC cancer stem cell marker) according to the manufacturer's instructions. Then CD133^+ cells (Huh 7 cancer stem cells) and CD133− cells were sorted by flow cytometry and seeded into 96-well plate with fresh DMEM medium. After 24 h, medium was changed to fresh medium with compound sff-2-112 (“Example 1”) or sff-2-124 (“Example 3”) at different doses. After 48 h, cell viability was analyzed by CellTiter-Glo luminescent agent.

HEY A8 cancer cells = assay: Cell viability (CellTiter-Glo) on adherent HEY A8 cancer cells; format: cell-based, human; conditions: read-out: IC50 Cancer Cell HeyA8
Description: Cell Cultures Human ovarian carcinoma cell lines HEY A8 and SKOV3 were gifts from Professor Alice Wong's group (The University of Hong Kong). Cells were grown in Dulbecco's Modified Eagle (DMEM) medium supplemented with 10% FBS and 1% penicillin/streptomycin at 37° C. in a humidified atmosphere containing […] CO2. Isolation and culture of spheres were performed in serum-free stem-cell-selective condition as described in literature Ip etl. Oncogene 2014, 5, 9133-9149. Briefly, 1-2 weeks after plating, non-adherent spherical clusters of cells could be observed and were separated from single cells by low speed centrifugation. After 8th to 10th passages, the non-adherent spherical clusters of cells appeared as distinct spheres. Using this selection condition, HEY A8 spheres (HEY A8 SP) or SKOV3 spheres (SKOV3 SP) could be enzymatically dissociated and reformed into spheres within 3 days under stem-cell-selective condition. To allow differentiation, dissociated sphere cells were plated on tissue culture plates in medium (MCDB 105:M199=1:1) supplemented with 10% FBS and 1% PS.
HEY A8 or SKOV3 cancer Cells were plated in triplicate in 0.1 mL full medium in 96-well plates for 24 h. After that, the medium was changed to the fresh prepared medium with various concentrations of compounds. Cells were incubated for another 48 h. Then the cell viability was measured by CellTiter-Glo® Luminescent Cell Viability reagent according to the manufacture's instruction. The luminescence at 550 nm was measured using a microplate reader (SpectraMax 340PC 384, Molecular Devices).

HEY A8 cells [1] = assay: Sphere formation in suspension culture after treatment; format: cell-based, human; conditions: 15 or 30 μM for 48 h, 3 days recovery, 5 days sphere formation
Description: Hey A8 cells were treated with compounds DMSO sff-2-112 (“Example 1”) or sff-2-132 (“Example 4”) at the concentration of 15 or 30 μM for 48 h. Then cells were allowed to recover and grow in full medium in cell culture dishes for 3 days. After that, cells at the density of 5×10^4 cells/mL were transferred into low attachment dishes for 5 days to allow sphere formation. The number of spheres in each dish were counted.

HEY A8 cells [2] = assay: Population of CD133+ cells by flow cytometry (PE-conjugated CD133 antibody); format: cell-based, human; conditions: 15 μM; for population of CD133+ cells after treatment: control 21.8%
Description: CD133 has been reported to be a marker of ovarian CSCs. After cells treated with synthetic molecule, the population of CD133^+ cells were measured. HEY A8 cells were treated with taxol (100 nM), compound sff-2-112 (“Example 1”) or sff-2-132 (“Example 4”) at the concentration of 15 μM. Medium containing 0.1% DMSO was used as a negative control.
A suspension of HEY A8 cells at the concentration of 2.5×10^4 cells/mL in DMEM medium were seeded into 60-mm cell culture dishes. Cells were incubated at 37° C. in a humidified atmosphere containing 5% CO2 for 24 h, followed by the addition of 4 mL fresh medium or medium containing Paclitaxel (100 nM), sff-2-112 (15 μM) or compound sff-2-132 (15 μM). Medium containing 0.1% DMSO was used as a negative control. After 3 days, the medium was removed and cells were washed with cold PBS twice, and then stained with PE-conjugated CD133 antibody according to the manufacture's instruction. The fluorescence was analyzed by flow cytometry.

MDCK = assay: Toxicity against normal cell line MDCK; format: cell-based
Description: Fourteen compounds including aminoxy acid monomers and dipeptides have been identified to show toxicity against HEY A8 CSCs. The half maximal inhibitory concentration (IC50) values of compounds sff-2-112, sff-2-124, sff-2-132 and sff-2-100 towards adherent cancer HEY A8, SKOV3 cells and CSCs were further determined. […] Especially compound sff-2-132, its selectivity to CSCs is up to 60-fold higher than that to cancer cells. Their toxicity against other normal cell lines NIH3T3, HEK293 and MDCK were also tested and the IC50 values were summarized in Table 1.

[3] = system: Huh 7 cancer stem cells (CD133+); assay: Cell viability (CellTiter-Glo) of sorted Huh 7 CD133+ cells; format: cell-based; conditions: 48 h, different doses
Description: as §1

Adherent Hey A8 cells = assay: Cell respiration, oxygen consumption rate (Seahorse XF24); format: cell-based, human; conditions: FIG. 10; for cell respiration response to subsequent addition of FCCP, antimycin A and rotenone: more obvious at higher doses
Description: Cell respiration was measured by using an XF24 Extracellular Flux Analyzer (Seahorse, Bioscience), which measures the oxygen consumption rate (OCR). Adherent Hey A8 cells were seeded at 50000 cells/well in […] of their culture medium and incubated for 24 h at 37° C. in humidified atmosphere with 5% CO2. The medium was then replaced with 670 μL/well of high-glucose DMEM without serum and supplemented with 1 mM sodium pyruvate and 2 mM L-glutamine. The oxygen consumption rate (OCR) was measured with an extracellular flux analyzer (Seahorse) at preset time intervals upon the preprogrammed additions of the following compounds: Oligomycin to 1 μM, FCCP to 500 nM, Antimycin A and Rotenone to 0.5 μM final concentrations.

SMILES | death of Huh 7 CD133- cells (Huh 7 CD133- cells) | IC50 (HEY A8 cancer cells; 48 h incubation) [µM] | sphere forming ability / number of spheres relative to controls (HEY A8 cells [1]) | population of CD133+ cells relative to DMSO treated group (HEY A8 cells [2]) | population of CD133+ cells after treatment (HEY A8 cells [2]; 3 days) [%] | IC50 (MDCK) [µM] | death of Huh 7 CD133+ cells [3] | OCR after addition of compound (Adherent Hey A8 cells) | cell respiration response to subsequent addition of FCCP, antimycin A and rotenone (Adherent Hey A8 cells) | IC50 (HEY A8 cancer cells; Homo sapiens, HEY A8, 48 h incubation) [µM] | decrease of CD133+ population (HEY A8 cells [2]; 3 days, from 21.8%) | IC50 (MDCK; Canis lupus familiaris, MDCK) [µM]
O=C(NO[C@H](COCc1ccccc1)C(=O)Nc1ccccc1)c1cc(C(F)(F)F)cc(C(F)(F)F)c1 [sff-2-112] | induce the death | 23.4 ± 2.1 | significant decrease in the number of spheres; also recorded: significantly reduced sphere forming ability | significantly reduced the population of CD133^+ cells | 12.6 | 25.1 ± 1.1 | induce the death | OCR immediately increased | significantly decreased |  |  | 
CC(C)(C)OC(=O)[C@@H](COCc1ccccc1)ONC(=O)c1cc(C(F)(F)F)cc(C(F)(F)F)c1 [sff-2-132] |  |  | significant decrease in the number of spheres; also recorded: significantly reduced sphere forming ability | significantly reduced the population of CD133^+ cells | 1.9 |  |  | OCR immediately increased | significantly decreased | 52.9 ± 1.9 | around 10 fold | 49.1 ± 0.4
